Results reported in US10927125B2, “Substituted cinnolines as inhibitors of KRAS G12C” (Araxes Pharma LLC, priority 2013, dated 2021).

target: T1, KRAS G12C 1-169, his-tagged protein, GDP-loaded (Homo sapiens, UniProt P01116, G12C); experiment: Biochemical assay: covalent binding of compounds to KRAS G12C, analysed by mass spectrometry; details: binding measured at 30 min (compounds 247-375)
T1 construct: KRAS G12C 1-169, his-tagged protein, GDP-loaded
Experimental: Compounds were tested for activity as follows:
Compounds were diluted to 50× final test concentration in DMSO in 96-well storage plates. […] Reactions were mixed carefully and thoroughly by pipetting up/down with a 200 μl multi-channel pipettor. The plate was sealed well with aluminum plate seal, and stored in drawer at room temperature for 30 min, 2 hour or 24 hrs. 51 μl of 2% formic acid (Fisher cat # A117) in DI H2O was then added to each well followed by mixing with a pipette. The plate was then resealed with aluminum seal and stored on dry ice until analyzed as described below.
The above described assays were analyzed by mass spectrometry according to the following procedure:
The MS instrument is set to positive polarity, 2 GHz resolution, and low mass (1700) mode and allowed to equilibrate for 30 minutes. The instrument is then calibrated, switched to acquisition mode and the appropriate method loaded.
After another 30 minute equilibration time, a blank batch (i.e., buffer) is run to ensure equipment is operating properly. The samples are thawed at 37° C. for 10 minutes, briefly centrifuged, and transfer to the bench top. Wells A1 and H12 are spiked with 1 uL 500 uM internal standard peptide, and the plates centrifuged at 2000×g for 5 minutes. The method is then run and masses of each individual well recorded.
The masses (for which integration data is desired) for each well are pasted into the platemap and exported from the analysis. Masses for the internal standards are exported as well. The data at 50 ppm is extracted for the +19 charge state, and identity of well A1 is assigned using the internal standard spike and integrated. Peak data is exported as a TOF list and the above steps are repeated individually, for the +20, 21, 22, 23, 24, and 25 charge states.

T1 sequence (P01116 1-169 isoform P01116-2 G12C): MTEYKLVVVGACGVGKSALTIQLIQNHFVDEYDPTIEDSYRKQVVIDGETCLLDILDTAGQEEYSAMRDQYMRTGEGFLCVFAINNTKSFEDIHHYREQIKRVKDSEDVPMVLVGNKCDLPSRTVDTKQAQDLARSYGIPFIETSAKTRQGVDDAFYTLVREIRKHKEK

| Structure (SMILES) | Binding % |
| --- | --- |
| C=CC(=O)N1CCN(c2ncnc3c(F)c(-c4c(O)cccc4F)c(Cl)cc23)CC1 [Compound 353, (S)-1-(4-(6-chloro-8-fluoro-7-(2-fluoro-6-hydroxyphenyl)quinazolin-4-yl)piperazin-1-yl)prop-2-en-1-one] | ++++ (++++ indicates binding activity greater than 75%) |
| C=CC(=O)N1CCN(c2ncnc3cc(-c4cc(Cl)cc5[nH]ncc45)c(Cl)cc23)CC1 [Compound 266, 1-(4-(6-chloro-7-(6-chloro-1H-indazol-4-yl)quinazolin-4-yl)piperazin-1-yl)prop-2-en-1-one] | +++ (+++ indicates binding activity greater than 50% and up to 75%) |
| C=CC(=O)N1CCN(c2nc(NC3CCN(C)C3)nc3c(F)c(-c4cc(O)cc5ccccc45)c(Cl)cc23)CC1 (centres unmarked) [Compound 360, 1-(4-(6-chloro-8-fluoro-7-(3-hydroxynaphthalen-1-yl)-2-(1-methylpyrrolidin-3-ylamino)quinazolin-4-yl)piperazin-1-yl)prop-2-en-1-one] | ++++ (++++ indicates binding activity greater than 75%) |
| C=CC(=O)N1CCN(c2nc(N(C)C)nc3c(F)c(-c4cc(O)cc5ccccc45)c(Cl)cc23)CC1 [Compound 344, 1-(4-(6-chloro-2-(dimethylamino)-8-fluoro-7-(3-hydroxynaphthalen-1-yl)quinazolin-4-yl)piperazin-1-yl)prop-2-en-1-one] | +++ (+++ indicates binding activity greater than 50% and up to 75%) |
| C=CC(=O)N1CCN(c2ncnc3c(F)c(-c4c(F)ccc5cn[nH]c45)c(Cl)cc23)CC1 [Compound 368, 1-(4-(6-chloro-8-fluoro-7-(6-fluoro-1H-indazol-7-yl)quinazolin-4-yl)piperazin-1-yl)prop-2-en-1-one] | ++++ (++++ indicates binding activity greater than 75%) |
| C=CC(=O)N1CCN(c2cc(=O)[nH]c3cc(-c4c(C)ccc5[nH]ncc45)c(Cl)cc23)CC1 [Compound 326, 4-(4-acryloylpiperazin-1-yl)-6-chloro-7-(5-methyl-1H-indazol-4-yl)quinolin-2(1H)-one] | + (+ indicates binding activity from 5% to 25%) |
| C=CC(=O)N1CCN(c2ncnc3c(OC)c(-c4cc(O)cc5ccccc45)c(Cl)cc23)CC1 [Compound 348, 1-(4-(6-chloro-7-(3-hydroxynaphthalen-1-yl)-8-methoxyquinazolin-4-yl)piperazin-1-yl)prop-2-en-1-one] | ++++ (++++ indicates binding activity greater than 75%) |
| C=CC(=O)N1CCN(c2nc(OCCN(C)C)nc3c(F)c(-c4cc(O)cc5ccccc45)c(Cl)cc23)CC1 [Compound 374, 1-(4-(6-chloro-2-(2-(dimethylamino)ethoxy)-8-fluoro-7-(3-hydroxynaphthalen-1-yl)quinazolin-4-yl)piperazin-1-yl)prop-2-en-1-one] | +++ (+++ indicates binding activity greater than 50% and up to 75%) |
| C=CC(=O)N1CCN(c2ncnc3c(F)c(-c4cc(O)cc5ccccc45)c(Cl)cc23)CC1CN(C)C (centres unmarked) [Compound 346, 1-(4-(6-chloro-8-fluoro-7-(3-hydroxynaphthalen-1-yl)quinazolin-4-yl)-2-((dimethylamino)meth-yl)piperazin-1-yl)prop-2-en-1-one] | ++++ (++++ indicates binding activity greater than 75%) |
| C=CC(=O)N1CCN(c2cnnc3cc(-c4cc(O)cc5ccccc45)c(C(F)(F)F)cc23)CC1 [Compound 351, 1-(4-(7-(3-hydroxynaphthalen-1-yl)-6-(trifluoromethyl)cinnolin-4-yl)piperazin-1-yl)prop-2-en-1-one] | ++++ (++++ indicates binding activity greater than 75%) |
| C=CC(=O)N1CCN(c2cnnc3cc(-c4c(C)ccc5[nH]ncc45)c(C(F)(F)F)cc23)CC1 [Compound 350, 1-(4-(7-(5-methyl-1H-indazol-4-yl)-6-(trifluoromethyl)cinnolin-4-yl)piperazin-1-yl)prop-2-en-1-one] | ++++ (++++ indicates binding activity greater than 75%) |
| C=CC(=O)N1CCN(c2ncnc3c(OC)c(-c4c(C)ccc5[nH]ncc45)c(Cl)cc23)CC1 [Compound 302, 1-(4-(6-chloro-8-methoxy-7-(5-methyl-1H-indazol-4-yl)quinazolin-4-yl)piperazin-1-yl)prop-2-en-1-one] | +++ (+++ indicates binding activity greater than 50% and up to 75%) |
| C=CC(=O)N1CCN(c2nc(CN(C)C)nc3c(F)c(-c4c(C)ccc5[nH]ncc45)c(Cl)cc23)CC1 [Compound 254, 1-(4-(6-chloro-2-((dimethylamino)methyl)-8-fluoro-7-(5-methyl-1H-indazol-4-yl)quinazolin-4-yl)piperazin-1-yl)prop-2-en-1-one] | +++ (+++ indicates binding activity greater than 50% and up to 75%) |
| C=CC(=O)N1CCN(c2nc(NC3CCN(C)C3)nc3c(F)c(-c4c(C)ccc5[nH]ncc45)c(Cl)cc23)CC1 (centres unmarked) [Compound 372, 1-(4-(6-chloro-8-fluoro-7-(5-methyl-1H-indazol-4-yl)-2-(1-methylpyrrolidin-3-ylamino)quinazolin-4-yl)piperazin-1-yl)prop-2-en-1-one] | +++ (+++ indicates binding activity greater than 50% and up to 75%) |
| C=CC(=O)N1CCN(c2ncnc3c(F)c(-c4c(O)cccc4F)c(Cl)cc23)CC1 [Compound 370, (R)-1-(4-(6-chloro-8-fluoro-7-(2-fluoro-6-hydroxyphenyl)quinazolin-4-yl)piperazin-1-yl)prop-2-en-1-one] | + (+ indicates binding activity from 5% to 25%) |
| C=CC(=O)N1CCN(c2nc(N(C)CCN(C)C)nc3c(F)c(-c4c(C)ccc5[nH]ncc45)c(Cl)cc23)CC1 [Compound 371, 1-(4-(6-chloro-2-((2-(dimethylamino)ethyl)(meth-yl)amino)-8-fluoro-7-(5-methyl-1H-indazol-4-yl)quinazolin-4-yl)piperazin-1-yl)prop-2-en-1-one] | ++ (++ indicates binding activity greater than 25% and up to 50%) |
| C=CC(=O)N1CCN(c2ncnc3cc(-c4c(O)cccc4F)c(Cl)c(F)c23)CC1 [Compound 343, 1-(4-(6-chloro-5-fluoro-7-(2-fluoro-6-hydroxyphenyl)quinazolin-4-yl)piperazin-1-yl)prop-2-en-1-one] | +++ (+++ indicates binding activity greater than 50% and up to 75%) |

same assay, conditions: binding measured at 24 h (compounds 1-47)

| Structure (SMILES) | Binding % |
| --- | --- |
| C=CC(=O)N1CCN(c2ncnc3cc(Cl)c(-c4ccc(Br)cc4)cc23)CC1 [Compound 40, 1-(4-(6-(4-bromophenyl)-7-chloroquinazolin-4-yl)piperazin-1-yl)prop-2-en-1-one] | +++ (+++ indicates binding activity greater than 50% and up to 75%) |
| C=CC(=O)N1CCN(c2nccc3cc(Cl)c(-c4ccc(Cl)cc4O)cc23)CC1 [Compound 38, 1-(4-(6-chloro-7-(4-chloro-2-hydroxyphenyl)isoquinolin-1-yl)piperazin-1-yl)prop-2-en-1-one] | ++ (++ indicates binding activity greater than 25% and up to 50%) |
| C=CC(=O)N1CCN(c2nc(N)nc3cc(Cl)c(-c4ccc(Cl)cc4)cc23)CC1 [Compound 39, 1-(4-(2-amino-7-chloro-6-(4-chlorophenyl)quinazolin-4-yl)piperazin-1-yl)prop-2-en-1-one] | + (+ indicates binding activity from 5% to 25%) |
